The values that follow come from patent US8097759B2, “Inflammatory cytokine release inhibitor” (Institute of Medicinal Molecular Design, Inc., priority 2000, dated 2012).

This assay concerns NF-κB activation. The assay can be described thus: NF-κB activation reporter assay (pNFκB-Luc luciferase) under TNF-α stimulation. Type of assay: cell-based, human. Conditions: HepG2 or HeLa cells, TNF-α 40 ng/ml, 4 hours; for inhibition at 1 µg/mL / inhibition at 10 µg/mL: Homo sapiens, read-out: The rate of inhibitory activity against NF-κB activation (%). The method, then: Using a transfection reagent (Effectene; QIAGEN), the human hepatoma cell strain HepG2 or the human hysterocarcinoma cell strain HeLa was transfected with the firefly luciferase gene (Luc) contained plasmid (pNF κB-Luc Reporter Plasmid; […]) which contained oligonucleotide having five tandem copies of NF-κB binding sequences ([…]) on a upstream region of Luc, according to the QUAGEN's protocol and it was incuvated for 6-24 hours. After addition of TNF-α (40 ng/ml) with or without the test compound, the cells were incuvated for 4 hours, and intracellular luciferase activity was measured with PicaGene LT (TOYO INK MFG Co., Ltd.) and chemical luminescence measurement device ([…]luor Plus; TECAN). The inhibition ratio was measured as a ratio to the value of the luciferase activity without the test compound.
In general terms: A reporter such as luciferase makes a cellular process visible.

The mark [1] stands for this setting: Concentration of the agent: 1 μg/mL.
Setting [2] is: Concentration of the agent: 10 μg/mL.

Turning to “5-Bromo-2-hydroxy-N-(2-phenethyl)benzamide [Compound 2]”, the “The rate of inhibitory activity against NF-κB activation (%)” value (“The rate of inhibitory activity … (%)” below) was 18.6% under setting [1] and 83.2% under setting [2].

With “5-Bromo-N-(3,5-dichloro)phenyl-2-hydroxybenzenesulfonamide [Compound 10]”, the “The rate of inhibitory activity … (%)” value was determined as 7.1% under setting [1] and 78.6% under setting [2].

For the compound `O=C(NCc1cc(C(F)(F)F)cc(C(F)(F)F)c1)c1cc(Br)ccc1O` [Compound 1, N-{[3,5-bis(trifluoromethyl)phenyl]methyl}-5-bromo-2-hydroxybenzamide], the inhibition at 1 µg/mL under setting [1] is -33.6%. Under setting [2], the inhibition at 10 µg/mL turned out to be 54.4%.

Consider `O=C(NC1Cc2ccc(C(=O)N3CCOCC3)cc2C1)c1cc(Br)ccc1O` (stereo not drawn) [Compound 3, 5-Bromo-2-hydroxy-N-[5-(morpholinocarbonyl)indan-2-yl]benzamide], for which the inhibition at 1 µg/mL under setting [1] is 54.2%. The inhibition at 10 µg/mL under setting [2] amounted to 68.4%.

On to `O=C(CC(c1ccc(O)cc1)c1ccc(Cl)cc1)c1c(O)cccc1O` (stereo not drawn) [Compound 4, 3-(4-Chlorophenyl)-1-(2,6-dihydroxyphenyl)-3-(4-hydroxyphenyl)propan-1-one], for which the inhibition at 1 µg/mL under setting [1] was 42.9%. Also, the inhibition at 10 µg/mL under setting [2] came to 94.1%.

Consider `COc1ccc(CCC(=O)c2cc(Cl)ccc2O)cc1` [Compound 5, 1-(5-Chloro-2-hydroxyphenyl)-3-(4-methoxyphenyl)propan-1-one], for which the inhibition at 1 µg/mL under setting [1] stood at 33.3%. For the same compound, the inhibition at 10 µg/mL under setting [2] is 98%.

Consider `COc1ccc(C(=O)C=Cc2ccccc2OC)c(O)c1` [Compound 6, 1-(2-Hydroxy-4-methoxyphenyl)-3-(2-methoxyphenyl)propen-1-one], for which, under setting [1], the inhibition at 1 µg/mL was found to be 27.8%. Also, the inhibition at 10 µg/mL under setting [2] is 61.9%.

Turning to `Cc1ccc(O)c(C(=O)C=Cc2ccc3c(c2)OCCCO3)c1` [Compound 7, 3-(3,4-Dihydro-2H-benzo[b][1,4]dioxepin-7-yl)-1-(2-hydroxy-5-methylphenyl)propen-1-one], the inhibition at 1 µg/mL under setting [1] was 30.4%. Besides, under setting [2], the inhibition at 10 µg/mL was found to be 68.7%.

With `COCc1ccc(C(=O)C=Cc2ccc3c(c2)OCCCO3)c(O)c1` [Compound 8, 3-(3,4-Dihydro-2H benzo[b][1,4]dioxepin-7-yl)-1-[2-hydroxy-4-(methoxylmethyl)phenyl]propen-1-one], under setting [1], the inhibition at 1 µg/mL was found to be 35.3%. The inhibition at 10 µg/mL under setting [2] amounted to 59.9%.

With `C=C(c1ccc(Cl)cc1)c1cc(Cl)ccc1O` [Compound 9, 4-Chloro-2-[(4-chlorophenyl)ethen-2-yl]phenol], the inhibition at 1 µg/mL under setting [1] was 21.9%. The inhibition at 10 µg/mL under setting [2] turned out to be 99.2%.

For `O=C(Nc1ccccc1O)c1cc(C(F)(F)F)cc(C(F)(F)F)c1` [Compound 11, 3,5-Bis(trifluoromethyl)-N-(2-hydroxyphenyl)benzamide], the inhibition at 1 µg/mL under setting [1] turned out to be 28.4%. Under setting [2], the inhibition at 10 µg/mL stood at 44.1%.

For the compound `O=C(Nc1cc(Cl)ccc1O)c1cc(Cl)cc(Cl)c1` [Compound 12, N-(5-Chloro-2-hydroxyphenyl)-3,5-dichlorobenzamide], the inhibition at 1 µg/mL under setting [1] was determined as 68.6%. The inhibition at 10 µg/mL under setting [2] worked out at 87.3%.

Consider `O=S(=O)(Nc1cc(Cl)ccc1O)c1cc(Cl)cc(Cl)c1` [Compound 13, N-(5-Chloro-2-hydroxyphenyl)-3,5-dichlorobenesulfonamide], for which the “The rate of inhibitory activity … (%)” value by setting is: under setting [1], −7.1%; under setting [2], 63.8%.

Consider `Oc1ccc(Br)cc1CNc1cc(Cl)cc(Cl)c1` [Compound 14, N-[(5-Bromo-2-hydroxyphenyl)methyl]-3,5-dichloroaniline], for which the inhibition at 1 µg/mL under setting [1] came out at 21.7%. In addition, the inhibition at 10 µg/mL under setting [2] was 98.9%.

With `O=C(NN=Cc1ccc(O)cc1O)c1cc(Cl)ccc1O` [Compound 15, 5-Chloro-2-hydroxybenzoic acid (2,4-dihydroxybenzylidene)hydrazide], the inhibition at 1 µg/mL under setting [1] was 15.2%. In addition, the inhibition at 10 µg/mL under setting [2] was 70.4%.
